The text below walks through data of the Kinase Knowledgebase extract (Sharma et al. 2016).

The Ki is a dissociation constant, usually derived from enzyme kinetics or from competition with a known ligand. The low end stands for higher affinity, the high end for lower affinity.

Common to all, as to test: Enzyme Assay
Assay [1] addresses PIK3CA (human) (UniProt P42336).
In assay [2] the target is PIK3CB (Human) (UniProt P42338).
In assay [3] the target is PIK3CD (Human) (UniProt O00329).
The target of assay [4] is PIK3CG (human) (UniProt P48736).
PIK3CG (human), sequence (P48736 whole entry, looked up): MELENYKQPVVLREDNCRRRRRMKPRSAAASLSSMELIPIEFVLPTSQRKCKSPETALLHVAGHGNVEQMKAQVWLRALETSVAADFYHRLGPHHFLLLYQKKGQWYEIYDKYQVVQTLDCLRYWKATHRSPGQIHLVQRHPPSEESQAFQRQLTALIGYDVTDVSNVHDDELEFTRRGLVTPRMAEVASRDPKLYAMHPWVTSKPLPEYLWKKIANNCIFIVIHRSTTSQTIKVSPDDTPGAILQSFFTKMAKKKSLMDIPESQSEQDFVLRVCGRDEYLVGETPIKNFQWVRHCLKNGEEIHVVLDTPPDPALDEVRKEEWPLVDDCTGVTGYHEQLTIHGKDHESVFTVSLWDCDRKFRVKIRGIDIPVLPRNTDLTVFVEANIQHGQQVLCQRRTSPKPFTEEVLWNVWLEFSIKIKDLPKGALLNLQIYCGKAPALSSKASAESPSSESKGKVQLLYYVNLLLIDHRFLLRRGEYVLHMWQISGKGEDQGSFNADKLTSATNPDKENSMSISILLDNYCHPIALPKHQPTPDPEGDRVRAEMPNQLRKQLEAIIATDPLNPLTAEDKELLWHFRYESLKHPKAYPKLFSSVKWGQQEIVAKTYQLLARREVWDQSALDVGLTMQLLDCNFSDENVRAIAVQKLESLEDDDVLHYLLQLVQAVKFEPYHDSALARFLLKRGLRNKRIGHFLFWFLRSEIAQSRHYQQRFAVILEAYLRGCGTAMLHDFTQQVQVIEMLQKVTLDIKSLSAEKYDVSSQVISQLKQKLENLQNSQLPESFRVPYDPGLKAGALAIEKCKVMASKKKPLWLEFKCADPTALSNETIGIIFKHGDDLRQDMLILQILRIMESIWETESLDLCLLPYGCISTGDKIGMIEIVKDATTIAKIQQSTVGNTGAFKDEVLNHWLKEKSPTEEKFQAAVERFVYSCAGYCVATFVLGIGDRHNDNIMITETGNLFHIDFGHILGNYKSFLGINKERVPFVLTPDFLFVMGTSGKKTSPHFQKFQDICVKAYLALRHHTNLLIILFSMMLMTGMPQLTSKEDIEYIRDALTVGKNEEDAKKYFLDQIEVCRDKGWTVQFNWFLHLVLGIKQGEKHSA

PIK3CB (Human), sequence (P42338 whole entry, looked up): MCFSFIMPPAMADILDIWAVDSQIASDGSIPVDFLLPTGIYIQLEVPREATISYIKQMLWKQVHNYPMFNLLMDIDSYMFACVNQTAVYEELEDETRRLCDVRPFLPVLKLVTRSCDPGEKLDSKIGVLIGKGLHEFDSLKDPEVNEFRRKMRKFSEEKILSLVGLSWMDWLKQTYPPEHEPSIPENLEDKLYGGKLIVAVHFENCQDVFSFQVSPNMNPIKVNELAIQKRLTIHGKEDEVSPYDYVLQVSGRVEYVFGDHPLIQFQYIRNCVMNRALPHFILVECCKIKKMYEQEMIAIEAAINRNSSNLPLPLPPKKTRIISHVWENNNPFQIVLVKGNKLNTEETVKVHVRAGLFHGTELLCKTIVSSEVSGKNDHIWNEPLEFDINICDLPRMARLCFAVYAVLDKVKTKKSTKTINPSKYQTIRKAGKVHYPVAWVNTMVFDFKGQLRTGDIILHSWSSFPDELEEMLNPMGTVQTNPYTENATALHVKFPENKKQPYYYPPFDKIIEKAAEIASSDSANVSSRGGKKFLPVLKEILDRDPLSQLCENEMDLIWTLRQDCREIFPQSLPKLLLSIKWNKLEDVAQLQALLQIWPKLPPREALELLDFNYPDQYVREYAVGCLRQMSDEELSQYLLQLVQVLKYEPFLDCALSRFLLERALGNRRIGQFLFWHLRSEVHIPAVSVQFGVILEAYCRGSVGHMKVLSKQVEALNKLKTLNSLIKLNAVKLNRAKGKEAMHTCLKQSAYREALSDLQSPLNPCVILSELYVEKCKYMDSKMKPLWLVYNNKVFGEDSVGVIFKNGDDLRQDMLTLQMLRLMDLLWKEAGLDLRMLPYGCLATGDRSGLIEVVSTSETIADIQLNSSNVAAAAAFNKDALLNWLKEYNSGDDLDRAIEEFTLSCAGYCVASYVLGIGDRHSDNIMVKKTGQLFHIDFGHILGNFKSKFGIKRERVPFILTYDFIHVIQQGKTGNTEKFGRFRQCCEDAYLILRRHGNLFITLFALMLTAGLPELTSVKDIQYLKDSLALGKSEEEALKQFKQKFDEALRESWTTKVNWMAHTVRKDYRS
PIK3CD (Human), sequence (O00329 whole entry, looked up): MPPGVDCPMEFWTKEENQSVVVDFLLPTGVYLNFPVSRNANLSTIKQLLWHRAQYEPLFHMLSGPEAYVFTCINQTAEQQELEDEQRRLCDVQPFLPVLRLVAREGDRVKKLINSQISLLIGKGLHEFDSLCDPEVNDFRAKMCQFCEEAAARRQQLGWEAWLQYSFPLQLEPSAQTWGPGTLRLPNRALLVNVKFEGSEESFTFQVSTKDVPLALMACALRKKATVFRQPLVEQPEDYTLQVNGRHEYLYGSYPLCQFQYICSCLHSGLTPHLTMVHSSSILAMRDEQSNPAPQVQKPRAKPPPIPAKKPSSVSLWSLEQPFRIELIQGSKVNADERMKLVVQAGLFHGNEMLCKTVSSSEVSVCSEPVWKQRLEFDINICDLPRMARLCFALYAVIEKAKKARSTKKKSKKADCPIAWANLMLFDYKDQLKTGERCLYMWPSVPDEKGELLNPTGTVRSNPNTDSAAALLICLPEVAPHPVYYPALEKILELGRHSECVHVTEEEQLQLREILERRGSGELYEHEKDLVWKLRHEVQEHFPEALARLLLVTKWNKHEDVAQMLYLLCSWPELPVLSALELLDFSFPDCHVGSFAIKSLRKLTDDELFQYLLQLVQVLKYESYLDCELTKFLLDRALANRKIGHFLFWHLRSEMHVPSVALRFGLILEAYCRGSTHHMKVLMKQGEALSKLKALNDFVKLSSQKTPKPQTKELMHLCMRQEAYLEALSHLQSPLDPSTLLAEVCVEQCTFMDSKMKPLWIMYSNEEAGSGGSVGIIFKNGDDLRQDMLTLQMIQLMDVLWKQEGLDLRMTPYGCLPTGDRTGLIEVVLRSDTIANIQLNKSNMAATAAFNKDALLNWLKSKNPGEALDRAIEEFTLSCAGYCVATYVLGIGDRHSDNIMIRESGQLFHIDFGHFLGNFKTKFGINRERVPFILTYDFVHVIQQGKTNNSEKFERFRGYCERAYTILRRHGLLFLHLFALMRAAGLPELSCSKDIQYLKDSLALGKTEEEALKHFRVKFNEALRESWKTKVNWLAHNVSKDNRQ
PIK3CA (human), sequence (P42336 whole entry, looked up): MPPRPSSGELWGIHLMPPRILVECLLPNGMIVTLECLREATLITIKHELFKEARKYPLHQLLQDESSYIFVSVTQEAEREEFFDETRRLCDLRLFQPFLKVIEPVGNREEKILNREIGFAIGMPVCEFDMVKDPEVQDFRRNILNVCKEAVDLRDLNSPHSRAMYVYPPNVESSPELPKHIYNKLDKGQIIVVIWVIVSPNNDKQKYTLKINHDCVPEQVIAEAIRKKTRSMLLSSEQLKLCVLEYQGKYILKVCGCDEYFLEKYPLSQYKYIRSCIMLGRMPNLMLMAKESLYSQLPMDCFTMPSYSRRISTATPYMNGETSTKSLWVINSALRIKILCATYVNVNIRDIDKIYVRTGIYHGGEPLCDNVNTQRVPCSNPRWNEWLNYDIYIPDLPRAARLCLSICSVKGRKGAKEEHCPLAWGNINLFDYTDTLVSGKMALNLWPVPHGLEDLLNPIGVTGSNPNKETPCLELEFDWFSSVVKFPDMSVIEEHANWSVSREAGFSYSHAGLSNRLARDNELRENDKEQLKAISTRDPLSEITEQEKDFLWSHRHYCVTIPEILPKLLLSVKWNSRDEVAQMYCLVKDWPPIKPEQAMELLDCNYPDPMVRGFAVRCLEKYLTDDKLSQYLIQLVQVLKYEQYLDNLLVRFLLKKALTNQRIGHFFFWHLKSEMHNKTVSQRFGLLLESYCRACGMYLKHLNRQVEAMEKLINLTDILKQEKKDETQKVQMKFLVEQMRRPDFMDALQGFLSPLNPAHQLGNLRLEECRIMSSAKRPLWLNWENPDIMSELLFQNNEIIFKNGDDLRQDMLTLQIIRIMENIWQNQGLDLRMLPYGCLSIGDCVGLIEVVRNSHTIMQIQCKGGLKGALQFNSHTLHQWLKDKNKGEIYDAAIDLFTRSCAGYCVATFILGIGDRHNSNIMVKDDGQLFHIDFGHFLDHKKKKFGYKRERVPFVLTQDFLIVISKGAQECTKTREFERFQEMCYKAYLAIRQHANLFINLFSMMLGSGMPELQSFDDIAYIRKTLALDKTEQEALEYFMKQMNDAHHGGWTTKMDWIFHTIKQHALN

As to `CC1(C)COC1c1cc2nc(-c3cnc(N)nc3)nc(N3CCOCC3)c2s1` (centres undefined), the Ki in assay [1] turned out to be 1 nM; in assay [2] it was 19 nM; in assay [3], 9 nM; in assay [4] it was 5 nM.

As to `COC(C)(C)c1cc2nc(-c3cnc(N)nc3)nc(N3CCOCC3)c2s1`, the results for the Ki in assay [2], in assay [3] and in assay [4] were 21 nM, 2 nM and 4 nM, respectively.

On to `COC1(c2sc3c(N4CCOCC4)nc(-c4cnc(N)nc4)nc3c2C)COC1`, for which the Ki is 27 nM in assay [2], 7 nM in assay [3] and 7 nM in assay [4].

Take `CC1(C)OCCc2c1sc1c(N3CCOCC3)nc(-c3cnc(N)nc3)nc21`: the inhibition constant Ki in assay [1] came to 1 nM; in assay [2], 14 nM; in assay [3] it was 3 nM; in assay [4], 3 nM.
